In patent US8440617B2, “Hyperbaric treatment in wound healing” (The Trustees of the University of Pennsylvania, priority 2007, dated 2013):
“Also recorded” adds a separate entry of the source.

What was measured:
[1] = system: EPC (cells co-expressing CD34 and Sca-1); assay: EPC mobilization (CD34+/Sca-1+ cells in peripheral blood) in mice exposed to HBO2; type: in vivo, mouse; settings: wild-type mice, 40 mg/kg i.p. 2 hours prior to pressurization
Experimental: In the initial studies searching for the mechanisms for EPC mobilization with HBO2 EPC (assessed as cells that co-expressed CD34 and stem cell antigen-1 (Sca-1)) were also evaluated in peripheral blood of mice. […] In preliminary studies, mice were exposed to HBO2 for 90 minutes at up to 2.8 ATA and also to a pressure control, 2.8 ATA pressure using a gas containing 7.5% O2 (so that O2 partial pressure was the same as ambient air, 0.21 ATA O2). In select studies, mice were pre-treated with intraperitoneal L-nitroarginine methyl ester (L-NAME, to inhibit nitric oxide synthase [NOS]), 40 mg/kg i.p. administered 2 hours prior to pressurization). In anesthetized mice, blood was obtained by aortic puncture and bone marrow was harvested by clipping the ends off a tibia and flushing the marrow cavity with 1 ml PBS. Exposure to 2.8 ATA O2 (but not 100% O2 at ambient pressure or 2.8 ATA pressure at a total O2 partial pressure of only 0.21 ATA O2) increased EPC mobilization immediately after treatment, as well as 16 hrs post-treatment, and with repeated treatments (FIG. 4).
There is precedence for rapid mobilization of stem cells from bone marrow, but most emigration is believed to occur after a period of cell proliferation within the marrow niche.

stem cell factor (SCF) = assay: Plasma stem cell factor by Quantikine M immunoassay in mice (Table I); type: in vivo, mouse; settings: for Plasma SCF if mice pre-treated with L-NAME: L-NAME pre-treatment
[2] = system: NO synthesis in bone marrow (NOS); assay: Real-time bone marrow NO measurement with NO microelectrode during HBO; type: in vivo, mouse
Experimental: (§1) For HBO treatment, mice were placed in an animal hyperbaric chamber (Reneau Corp.) and subjected to 100% oxygen at 2.4 atmospheres absolute (ATA) for 90 min (Davis Wound Healing Protocol). To measure continuous, real-time BM NO levels, NO microelectrodes was inserted into the femoral marrow cavity as previously described. An osteotomy was created on the patellar surface of the murine femur using a 25 G beveled needle, allowing the electrode to be lowered into the marrow space when the animal was placed in the hyperbaric chamber. In some mice, pretreatment with L-NAME (40 mg/kg i.p.) (Sigma-Aldrich) was given 2 h prior to exposure to HBO.
In early studies, it was hypothesized that HBO2 augments stem cell mobilization because it stimulates •NO synthesis in the bone marrow, as •NO is known to play a central role with stem cell release from bone marrow. […] Mice were placed in a hyperbaric chamber where, while breathing air, baseline measurements were obtained. The chamber was then flushed with 100% O2 and compressed to 2.4 ATA O2.
Physiologically, the NO-mediated EPC release into circulation occurs in response to tissue-level hypoxia, although this compensatory response is inadequate in the setting of diabetes and results in severe defects in neovascularization and wound healing. […] Therefore, it was sought to utilize HBO as a tool to augment EPC release into circulation and further study both EPC mobilization and wound-homing mechanisms in the presence of diabetes. The goal was to determine whether hyperoxia stimulates NO production in the BM of diabetic mice via a NOS-mediated pathway and whether this pathway is impaired in diabetes. To test this hypothesis, Nafion polymer—coated NO microsensors were inserted into the femur BM space of both STZ induced diabetic and nondiabetic mice to measure real-time NO levels within the BM prior to and is during HBO-induced hyperoxia. […] It was speculated, that this was likely due to a compensatory effect from other NOS isoforms, and therefore the level of both iNOS and nNOS was examined in diabetic mice. […] However, no observation was made of any changes in the phosphorylation of these NOS isoforms.

ischemic hindlimb wounds = assay: Hindlimb ischemia (femoral ligation/excision): perfusion, wound BMD EPC and wound healing with daily HBO2; type: in vivo, mouse; settings: 40 mg/kg i.p.
Experimental: In addition, it was observed that HBO2 daily treatments (2.4ATA 100% O2 for 90 min) improved hindlimb perfusion by Laser Doppler Imaging (LDF) after femoral ligation/excision (FIG. 6) and increased the bone marrow-derived (BMD) EPC within the incisional wounds, 3 d post-wounding (with 4 HBO2 treatments) (FIG. 7). By day 8 after wounding, ischemic excisional punch biopsy wounds treated daily with HBO2 healed faster (FIG. 8). […] Each day animals were harvested, and blood (retro-orbital bleeding) and bone marrow (flushing of tibias and femurs) collected (3 mice for each time point had bone marrow collected and 5 mice for each time point had blood collected). VEGFR-2 (kdr) mRNA was semi-quantitated by RT PCR.

[3] = system: circulating EPCs (CXCR4+/VEGFR2+, Tie2+/VEGFR2+); assay: Circulating EPCs by flow cytometry in STZ-diabetic mice; type: in vivo, mouse
Experimental: (§2) Tie2-GFP, wild-type or chimeric FVB mice at 6-12 wk of age were treated with STZ (Sigma-Aldrich) to induce diabetes. Mice were rendered diabetic by i.p. administration of 60 mg/kg STZ in 50 mM sodium citrate, pH 4.5, daily for 5 d. Control mice were treated with daily injections of citrate buffer. Serum glucose was measured from the mouse tail vein using a glucometer. Once serum glucose reached 250 mg/dL, mice were followed with daily measurements for 1 wk prior to use in experiments. Serum glucose levels in STZ mice averaged 461 mg/dL with a range of 372-520 mg/dL, while control mice serum glucose mean level was 120 mg/dL with a range of 94-135 mg/dL. Wounds were induced on the ventral surface of the mouse thigh using a 4 mm punch biopsy. Full-thickness skin was removed, exposing the underlying muscle.
as §1
Mobilization of EPCs into circulation was studied using flow cytometry as previously described. Cells isolated from mice were incubated with various Abs (BD Biosciences). Isotype matched mouse immunoglobulins served as controls. One million viable cells were analyzed per sample using an LSR2 multicolor flow cytometer (BD Biosciences). Data was analyzed using FlowJo software (Treestar, Inc.).
Physiologically, increased levels of BM NO result in activation of MMP-9 and conversion of kit ligand to its soluble form, ultimately generating EPC release into circulation. To study the effects of the hyperoxia-induced rise in NO levels in the marrow cavity on mobilization of EPCs into circulation, peripheral blood from diabetic mice was analyzed for EPCs using flow cytometry. A determination of whether hyperoxia, induced by HBO, increases the number of circulating EPCs in the peripheral blood of diabetic mice was made. Specifically, peripheral blood of diabetic mice was examined 18 h after a single HBO treatment. After excluding dead DAPI^+labeled cells, candidate lymphocytes, identified by their typical appearance on forward and side scatter, were gated and CD45^+/CD3^+cell populations were excluded. […] Therefore, several marker combinations were used to quantitate circulating EPCs. […]

[4] = Induction of diabetes with STZ, serum glucose by glucometer; type: in vivo, mouse; settings: 60 mg/kg i.p. daily for 5 d
Experimental: as §2

[5] = system: wound EPCs (GFP+/VEGFR2+); assay: EPC homing to wounds in diabetic GFP bone marrow chimeric mice; type: in vivo, mouse
Experimental: All procedures were done with approval from the University of Pennsylvania Institutional Animal Care and Use Committee (IACUC). 6-12 wk-old FVB wild-type mice (FVB/NJ), GFP (FVB/Tg) and Tie2-GFP (Tg(TIE2GFP)87 Sato/J) were purchased from The Jackson Laboratory. For all surgical procedures, mice were anesthetized with an i.p. injection of 80 mg/kg of ketamine (Phoenix Scientific, Inc.) and 20 mg/kg xylazine (Vedco Inc.). For BM transplantation experiments, 1×10^7 BM cells from GFP mice were transplanted to γ-irradiated (900 Rad) FVB wild type mouse via tail vein. […] For local wound SDF-1α injection, SDF-1α protein (R&D Systems) was reconstituted in PBS and injected into the wound base (25 μg/Kg).
For immunostaining, paraffin embedded serial sections (5 μm) were first underwent standard deparaffinizing and rehydration procedures and then probed with various Abs. To assess wound SDF-1α^+ cells, sections were double-stained with HTC-conjugated anti-SDF-1α and PE-conjugated different tissue-specific Abs (eBiosciences). To detect blood vessels in wound, sections were stained with HTC-conjugated anti-VEGFR2Ab. […] Tissue sections were analyzed using fluorescence microscopy and ImageJ (NIH) software to quantitate fluorescent intensity. In trichrome stained slides, blue stain (collagen content) was also quantitatively analyzed by ImageJ. […]

[6] = system: diabetic cutaneous wounds; assay: Peripheral wound healing (wound closure) in diabetic mice; type: in vivo, mouse; settings: diabetic mice, 6 d post-wounding, FIG. 17A
Experimental: as §2
Initial wound surface area was recorded and wounds were then followed serially with daily digital photographs using an Olympus digital camera. Photographs contained an internal scale to allow for standard calibration of measurements. Wound area was quantified using ImageJ software. Wound area was expressed as the percentage of original wound size. Wounds were followed for 6 d and mice were sacrificed at the conclusion of the experiment.
EPCs play a key role in vasculogenesis and cutaneous tissue repair. It was hypothesized that increased numbers of EPCs in circulation, along with enhanced EPC homing to wounds, results in improved wound healing in diabetes. Diabetic wound closure rates were studied, in response to treatment with HBO and SDF-1α alone and in combination. Wounded diabetic mice underwent daily wound injections with SDF-1α, PBS, HBO, or SDF-1α+HBO treatments. […] This healing response was greater than the response to either treatment modality alone. In addition, histochemical analysis was conducted to examine blood vessel density (VEGFR2 staining), cellularity and stromagenesis (H&E staining), and extracellular constitution (trichrome staining) in wound tissues. […]

wound granulation tissue = assay: Histochemistry of diabetic wound tissue (VEGFR2 vessel density, H&E, trichrome collagen); type: in vivo, mouse; settings: diabetic wounds at d 6, FIG. 17D-E
Source text: (§3) For immunostaining, paraffin embedded serial sections (5 μm) were first underwent standard deparaffinizing and rehydration procedures and then probed with various Abs. To assess wound SDF-1α^+ cells, sections were double-stained with HTC-conjugated anti-SDF-1α and PE-conjugated different tissue-specific Abs (eBiosciences). To detect blood vessels in wound, sections were stained with HTC-conjugated anti-VEGFR2Ab. For examination of wound EPC recruitment in BM transplantation experiment, sections were double-stained with FITC-GFP and PE-VEGFR2 (BD Biosciences). Nuclei were counterstained with Hoescht dye. Masson's trichrome staining and H&E staining were performed using standard method and all reagents were from Sigma-Aldrich. Tissue sections were analyzed using fluorescence microscopy and ImageJ (NIH) software to quantitate fluorescent intensity. In trichrome stained slides, blue stain (collagen content) was also quantitatively analyzed by ImageJ.
EPCs play a key role in vasculogenesis and cutaneous tissue repair. It was hypothesized that increased numbers of EPCs in circulation, along with enhanced EPC homing to wounds, results in improved wound healing in diabetes. Diabetic wound closure rates were studied, in response to treatment with HBO and SDF-1α alone and in combination. Wounded diabetic mice underwent daily wound injections with SDF-1α, PBS, HBO, or SDF-1α+HBO treatments. […]

[7] = Mouse serum SDF-1α ELISA after wound injection; type: in vivo; settings: 2 h following wound injection of SDF-1α
Experimental: Mouse serum SDF-1α concentration was measured by Quantikine® mouse SDF-1α ELISA kit (R&D Systems) based on manufacturer's protocol.

SDF-1α in wound tissue = assay: Wound SDF-1α level (immunostaining); type: in vivo, mouse; settings: after SDF-1α injection, compared to nondiabetic wound
Source text: as §3

COC(=O)[C@@H](N)CCCNC(=N)N[N+](=O)[O-] [L-NAME, L-nitroarginine methyl ester]
EPC mobilization with L-NAME injected before HBO2 [1]: did not occur | Plasma SCF if mice pre-treated with L-NAME (stem cell factor (SCF); air-breathing (control) mice): 39.4 ± 1.9 pg/mL | Plasma SCF if mice pre-treated with L-NAME (stem cell factor (SCF); then 2.8 ATA O2, 16 hours after): 42.4 ± 2.5 pg/mL | HBO2-induced SCF elevation with L-NAME (stem cell factor (SCF); mouse, in vivo): blocked | NO signal in bone marrow with L-NAME pre-treatment ([2]; 40 mg/kg ip before 2.4 ATA O2): no •NO signal was detected | hyperoxia-induced increases in BM NO production after pretreatment ([2]; diabetic and nondiabetic mice): completely inhibited; also recorded: Complete inhibition | HBO2 wound healing improvements with L-NAME prior to HBO2 (ischemic hindlimb wounds): not observed | EPC mobilization following HBO in L-NAME pre-treated animals ([3]; mouse, in vivo): No increase; also recorded: inhibited

CN(N=O)C(=O)N[C@@H](C=O)[C@@H](O)[C@H](O)[C@H](O)CO [STZ, streptozocin]
Serum glucose, average [4]: 461 mg/dL | Serum glucose, range [4]: 372 to 520 mg/dL

SDF-1α
circulating EPCs versus other groups / PBS ([3]; wounded diabetic mice, 48 h post-wounding, FIG. 15A): statistically significant increase | increase in circulating EPCs (CXCR4+/VEGFR2+) ([3]; wounded diabetic mice, daily treatment, 48 h post-wounding): 2 fold | increase in wound-level EPCs (GFP+/VEGFR2+) ([5]; diabetic chimeric mice, 3 d of treatment, vs untreated diabetic mice): 3 fold | EPCs recruited/homing to wound tissue ([5]; diabetic mice): significant increase | wound healing rates compared with PBS treated controls [6]: statistically improved | collagen deposit and vessel density (wound granulation tissue): significant increase | systemic (peripheral blood) SDF-1α concentration [7]: increased | local SDF-1α level in diabetic wound (SDF-1α in wound tissue): dramatically increased
